Source: BigSolDB 2.1

C[n+]1ccn(CCOCCOCCn2cc[n+](C)c2)c1.F[P-](F)(F)(F)(F)F.F[P-](F)(F)(F)(F)F
solubility (mole fraction)
Details | 283 K | 288 K | 293 K | 298 K | 303 K | 308 K
in DMF | 0.098 | 0.101 | 0.105 | 0.109 | 0.113 | –
in DMSO | – | – | 0.106 | 0.119 | 0.131 | 0.14
in ethanol | 3.3e-05 | 4e-05 | 4.7e-05 | 5.7e-05 | 7.2e-05 | –
in methanol | 0.000198 | 0.000231 | 0.000285 | 0.000369 | 0.000502 | –
in water | 0.00015 | 0.000197 | 0.000257 | 0.000334 | 0.00043 | –
